Data from PubChem BioAssay AID330 (DTP/NCI, 2004).
Values joined by “and” are separate entries in the source; they are usually repeats but may differ in a detail not shown here. Equal values may be shown once. Toxic doses and inconclusive results are not listed. Peptide text beside a SMILES is read from it.

System: P388 leukemia ip, CD2F1 mice, survival T/C
Assay: NCI In Vivo Anticancer Drug Screen. Data for tumor model P388 Leukemia (intraperitoneal) in CD2F1 (CDF1) mice
Conditions: endpoint: median survival time, higher = longer survival
How it was run: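 Mice carrying the transplanted tumor received test compound or vehicle. Survival was recorded in each group, and the value is the treated-group measurement divided by that of the vehicle-treated control group.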

[1] = dose: 60.0 mg/kg/injection, schedule: Q01DX005 (ip), vehicle: saline with Tween-80
[2] = dose: 120.0 mg/kg/injection, schedule: Q01DX005 (ip), vehicle: saline with Tween-80
[3] = dose: 240.0 mg/kg/injection, schedule: Q01DX005 (ip), vehicle: saline with Tween-80
[4] = dose: 50.0 mg/kg/injection, schedule: Q01DX009 (ip), vehicle: saline with Tween-80
[5] = dose: 100.0 mg/kg/injection, schedule: Q01DX009 (ip), vehicle: saline with Tween-80
[6] = dose: 200.0 mg/kg/injection, schedule: Q01DX009 (ip), vehicle: saline with Tween-80
[7] = dose: 50.0 mg/kg/injection, schedule: Q01DX009 (ip), vehicle: saline
[8] = dose: 100.0 mg/kg/injection, schedule: Q01DX009 (ip), vehicle: saline

SMILES: CC(=O)Nc1ccc(N=NN(C)Cc2ccccc2)cc1
- T/C (dose: 25.0 mg/kg/injection, schedule: Q01DX001 (ip), vehicle: Klucel (hydroxypropylcellulose) (HPC)): 102 % of control
- T/C (dose: 50.0 mg/kg/injection, schedule: Q01DX001 (ip), vehicle: Klucel (hydroxypropylcellulose) (HPC)): 92 % of control

SMILES: N#Cc1nc(CC(=O)c2ccccc2)c(CC(=O)c2ccccc2)nc1C#N
- T/C [1]: 100 % of control
- T/C [2]: 106 % of control and 94 % of control
- T/C [3]: 100 % of control and 91 % of control

SMILES: CC(N)C(=O)NC(Cc1ccc(O)cc1)C(N)=O (stereo not drawn) (H-Ala-Tyr-NH2; configuration not given here)
- T/C (dose: 50.0 mg/kg/injection, schedule: Q01DX005 (ip), vehicle: Klucel (hydroxypropylcellulose) (HPC)): 108 % of control
- T/C (dose: 100.0 mg/kg/injection, schedule: Q01DX005 (ip), vehicle: Klucel (hydroxypropylcellulose) (HPC)): 105 % of control
- T/C (dose: 200.0 mg/kg/injection, schedule: Q01DX005 (ip), vehicle: Klucel (hydroxypropylcellulose) (HPC)): 100 % of control

SMILES: C=CC(=O)P(=O)(OCC)OCC
- T/C (dose: 100.0 mg/kg/injection, schedule: Q04DX002 (ip), vehicle: saline): 107 % of control
- T/C (dose: 200.0 mg/kg/injection, schedule: Q04DX002 (ip), vehicle: saline): 103 % of control
- T/C (dose: 400.0 mg/kg/injection, schedule: Q04DX002 (ip), vehicle: saline): 98 % of control

SMILES: CC(C)(c1ccccc1)[N+](C)(C)C
- T/C (dose: 5.0 mg/kg/injection, schedule: Q01DX009 (ip), vehicle: saline with Tween-80): 100 % of control
- T/C (dose: 10.0 mg/kg/injection, schedule: Q01DX009 (ip), vehicle: saline with Tween-80): 104 % of control
- T/C (dose: 10.0 mg/kg/injection, schedule: Q04DX003 (ip), vehicle: saline): 90 % of control
- T/C (dose: 20.0 mg/kg/injection, schedule: Q01DX009 (ip), vehicle: saline with Tween-80): 109 % of control
- T/C (dose: 20.0 mg/kg/injection, schedule: Q04DX003 (ip), vehicle: saline): 95 % of control

SMILES: COc1ccc2c(c1)CCC1C2=NN=C2CCCC21 (centres undefined)
- T/C (dose: 100.0 mg/kg/injection, schedule: Q01DX001 (ip), vehicle: Klucel (hydroxypropylcellulose) (HPC)): 97 % of control
- T/C (dose: 200.0 mg/kg/injection, schedule: Q01DX001 (ip), vehicle: Klucel (hydroxypropylcellulose) (HPC)): 88 % of control
- T/C (dose: 400.0 mg/kg/injection, schedule: Q01DX001 (ip), vehicle: Klucel (hydroxypropylcellulose) (HPC)): 92 % of control

SMILES: Cc1noc2c1CC(=O)c1ccccc1OC2
- T/C [1]: 100 % of control
- T/C [2]: 98 % of control
- T/C [3]: 94 % of control

SMILES: O=C(Nc1ccccc1)Nc1ccc2c(c1)C(=O)CCCC2
- T/C (dose: 50.0 mg/kg/injection, schedule: Q01DX005 (ip), vehicle: saline with Tween-80): 96 % of control
- T/C (dose: 100.0 mg/kg/injection, schedule: Q01DX005 (ip), vehicle: saline with Tween-80): 93 % of control
- T/C (dose: 200.0 mg/kg/injection, schedule: Q01DX005 (ip), vehicle: saline with Tween-80): 94 % of control

SMILES: O=Cc1c2ccc(Cl)cc2nc2cc(Cl)ccc12
- T/C (dose: 25.0 mg/kg/injection, schedule: Q01DX001 (ip), vehicle: saline with Tween-80): 100 % of control
- T/C (dose: 50.0 mg/kg/injection, schedule: Q01DX001 (ip), vehicle: saline with Tween-80): 90 % of control
- T/C (dose: 100.0 mg/kg/injection, schedule: Q01DX001 (ip), vehicle: saline with Tween-80): 100 % of control

SMILES: COc1ccc(NC(=S)Nc2ccc(S(=O)(=O)N3CCCCC3)cc2)cc1
- T/C (dose: 50.0 mg/kg/injection, schedule: Q01DX009 (ip), vehicle: Klucel (hydroxypropylcellulose) (HPC)): 94 % of control
- T/C (dose: 100.0 mg/kg/injection, schedule: Q01DX009 (ip), vehicle: Klucel (hydroxypropylcellulose) (HPC)): 94 % of control and 95 % of control
- T/C (dose: 200.0 mg/kg/injection, schedule: Q01DX009 (ip), vehicle: Klucel (hydroxypropylcellulose) (HPC)): 98 % of control

SMILES: COC1/C=C/OC2(C)Oc3c(C)c(O)c4c(O)c(c(C=NN5C(C)CN(Cc6ccc(Cl)cc6)CC5C)c(O)c4c3C2=O)NC(=O)/C(C)=C/C=C/C(C)C(O)C(C)C(O)C(C)C(OC(C)=O)C1C (centres undefined)
- T/C [4]: 98 % of control
- T/C [5]: 95 % of control
- T/C [6]: 95 % of control

SMILES: O=c1n[n+]([O-])ccn1C1OC(CO)C(O)C1O (centres undefined)
- T/C [7]: 119 % of control and 123 % of control
- T/C [8]: 106 % of control
- T/C (dose: 300.0 mg/kg/injection, schedule: Q01DX009 (ip), vehicle: saline): 169 % of control and 170 % of control
- T/C (dose: 450.0 mg/kg/injection, schedule: Q01DX009 (ip), vehicle: saline): 96 % of control

SMILES: N#C/C(=C\C(Cl)=C/c1ccccc1)C(N)=S
- T/C [7]: 103 % of control
- T/C [8]: 100 % of control

SMILES: Cc1cc(N(C)C)cc(C)c1N=Nc1cc[n+]([O-])cc1
- T/C (dose: 25.0 mg/kg/injection, schedule: Q01DX009 (ip), vehicle: saline with Tween-80): 95 % of control
- T/C [4]: 94 % of control
- T/C [5]: 103 % of control
- T/C [6]: 95 % of control
